Data taken from patent US20180113115A1, “SCREENING ASSAYS BASED ON MAG AND/OR ABHD6 FOR SELECTING INSULIN SECRETION PROMOTING AGENT” (VAL-CHUM, LIMITED PARTNERSHIP, priority 2010, published 2018).
“Also recorded” adds a separate entry of the source.

Legend:
[1] = tested on: isolated CD1 mouse islets; assay: GSIS in isolated CD1 mouse islets; format: cell-based; details: for GSIS: 20 μM WWL70 or 20 μM AMG9810 alone
Text: (§1) All procedures were approved by the Institutional Committee for the Protection of Animals at the Centre Hospitalier de l'Université de Montreal Research Center. Wistar rats or […] mice or CD1 mice (all male) from Charles River (St-Constant, QC, Canada) were anaesthetized with Somnotol® (MTC Pharmaceuticals, Canada) and sacrificed by exsanguination. Pancreatic islets were isolated by collagenase (type XI from Sigma) digestion of total pancreas (Gotoh et al.), followed by separation (centrifugation at 1040×g) on a Histopaque™ 1119, 1077 (Sigma) gradient. Isolated islets were handpicked and cultured overnight in a petri dish at 37° C. in a humidified atmosphere containing 5% CO2 in RPMI 1640 with sodium bicarbonate, supplemented with 10% fetal calf serum, 10 mM HEPES pH 7.4, 2 mM L-glutamine, 1 mM sodium pyruvate, 100 U/mL penicillin and 100 μg/mL streptomycin.
(§2) For insulin secretion from rat, mouse or human islets, batches of 10 islets were washed in KRBH containing 2.8 mM glucose and 0.5% defatted BSA, and pre-incubated for 45 min in KRBH containing 2.8 mM glucose, 0.5% defatted BSA and different pharmacological agents (at indicated concentrations) or DMSO. Islets were then incubated for either 45 min or 2 h in KRBH containing various glucose concentrations or 2.8 mM glucose plus 35 mM KCl, 0.5% defatted BSA in the presence or absence of drugs (at indicated concentrations) or vehicle (DMSO). At the end of the incubation, media were collected and insulin extracted from cells or islets in acid-ethanol (1.5% HCl, 75% ethanol). Total insulin contents and media insulin concentrations were determined by radioimmunoassay using human insulin standards (Linco Research, Mo.).

human intact islets = assay: GSIS in human intact islets; format: cell-based; details: one donor; for GSIS: 20 μM WWL70 or 20 μM AMG9810 alone
Method: Human islets were obtained from the Human Islet Isolation Core of MDRC, following appropriate ethical guidelines. The donor was a […] without any known metabolic disease. Islets were hand-picked and cultured overnight before use. Both rodent and human islets were also treated with trypsin to disperse islet cells and then cultured overnight in RPMI complete medium. These overnight cultured dispersed islets cells were then used for examining the effect of various pharmacological agents.
as §2

INS 832/13 cells [2] = assay: Insulin secretion measurement in INS 832/13 cells (static incubation); format: cell-based; details: for KCl-stimulated insulin secretion: 35 mM KCl; for KCl-stimulated insulin secretion / insulin secretion stimulated by leucine+glutamine: 1 mM glucose, 10 μM WWL70 or 10 μM AMG9810; for insulin secretion stimulated by leucine+glutamine: Gln+Leu 5 mM each; for glucose-stimulated insulin secretion (GSIS): increasing glucose (5 and 10 mM), 10 μM WWL70, 50 μM orlistat, 1 μM JZL184
Method: (§3) INS 832/13 cells (Hohmeir et al.) were cultured at 37° C. in a humidified atmosphere containing 5% CO2 in RPMI 1640 with sodium bicarbonate, supplemented with 10% (v/v) fetal calf serum (Wisent), 10 mM HEPES, pH 7.4, 2 mM L-glutamine, 1 mM sodium pyruvate and 50 μM β-mercaptoethanol (complete RPMI). Cells were grown to 80% confluence. Media were changed to RPMI 1640 containing 3 mM glucose supplemented as the complete RPMI 24 h prior to the experiments. Insulin secretion incubations were conducted in Krebs-Ringer bicarbonate buffer containing 10 mM HEPES, pH 7.4 (KRBH).
INS 832/13 cells were washed in KRBH containing 1 mM glucose and 0.5% defatted BSA (KRBH 1G/0.5% BSA) and pre-incubated for 45 min in KRBH 1G/0.5% BSA in presence of pharmacological agents (at indicated concentrations) or vehicle (DMSO). […] When examining the effect of 2-AG, it was added to cells at 0 to 1 μM concentration at 2 mM and 10 mM glucose. Insulin secretion from INS 832/13 cells was measured from either 45-min or 2-h static incubations in KRBH containing various glucose concentrations, 0.5% defatted BSA and pharmacological agents or vehicle, with or without 35 mM KCl or 0.3 mM palmitate, as specified.

rat intact islets = assay: GSIS in isolated intact rat islets; format: cell-based
Text: as §1
(§4) For insulin secretion from rat, mouse or human islets, batches of 10 islets were washed in KRBH containing 2.8 mM glucose and 0.5% defatted BSA, and pre-incubated for 45 min in KRBH containing 2.8 mM glucose, 0.5% defatted BSA and different pharmacological agents (at indicated concentrations) or DMSO. […] Total insulin contents and media insulin concentrations were determined by radioimmunoassay using human insulin standards (Linco Research, Mo.).

[3] = tested on: isolated C57Bl6 mouse islets; assay: GSIS in isolated C57Bl6 mouse islets; format: cell-based; details: for GSIS: 20 μM WWL70 or 20 μM AMG9810 alone, 2.8 and 11.1 mM glucose
Text: as §1, §2

[4] = tested on: dispersed rat islet cells; assay: GSIS in dispersed rat islet cells; format: cell-based; details: 20 μM WWL70, 20 μM AMG9810 or combination
Text: as §1, with “streptomycin. […]” for “streptomycin.”
as §4

INS 832/13 cells [5] = assay: Effect of lipase inhibitors on [U-14C]-glucose incorporation into lipids; format: cell-based; details: for glucose incorporation into 1-monoacylglycerol (1-MAG) / glucose incorporation into 2-monoacylglycerol (2-MAG) / glucose incorporation into diacylglycerol (DAG) / glucose incorporation into triglycerides (TG): 10 μM WWL70, 1 μM JZL184
Method: as §3
INS 832/13 cells were incubated overnight at 11 mM [U-^14C]-glucose in RPMI medium in a CO2-incubator in order to pre-label all the lipids in the cells. Then the cells were washed in KRBH (1 mM [U-^14C]-glucose) and pre-incubated for 45 min in KRBH at 1 mM [U-^14C]-glucose to bring metabolism to basal level. After this, cells were further incubated for 2 h in KRBH at 1 and 10 mM [U-^14C]-glucose and the indicated inhibitors. […] Then the cells were washed rapidly and flash-frozen in liquid nitrogen and extracted for lipids. Lipids were separated by TLC and the associated radioactivity was quantified. Neutral lipids were separated on boric acid/silica gel-TLC, with two solvent systems, first petroleum ether: diethyl ether: acetic acid (70:30:1), followed by second solvent system up to half of the plates, chloroform: acetone: acetic acid (60:40:1). Phospholipids were separated with a solvent system, chloroform: methanol: water (65:25:4).

MAG lipase (MAGL) = details: cited from earlier work
[6] = tested on: INS832/13 cell membrane extracts; assay: 1-OG (MAG) hydrolysis by cell membrane extracts, released oleic acid by HPLC; format: biochemical; details: 50 μM 1-oleoylglycerol, 1 h at 30° C.
Method: 8 μg of […] cell membrane extracts were incubated with 50 μM of MAG (1-oleoylglycerol) and the indicated inhibitors for 1 h at 30° C. Released oleic acid was measured by HPLC after Dole's extraction and derivatization with bromoacetaminophenone.

CD1 mice = assay: Oral glucose tolerance test (OGTT); format: in vivo, mouse; details: WWL70 10 mg/kg intraperitoneally 2 h prior to oral glucose 2 g/kg
Method: Normal CD1 mice were fasted for 4 h prior to the oral glucose tolerance test (OGTT). […] Control mice (6) were given only vehicle. After 2 h, all mice were given a oral gavage of glucose (2 g/kg of body weight), followed by blood collection from the tail vein at the indicated times. Blood glucose (glucometer; Accu-Check™, Roche Applied Science) and plasma insulin (ELISA) (insulin mouse ultrasensitive electroimmunoassay, ALPCO Diagnostics, Salem, N.H.) were measured.

ABHD12 = details: cited from earlier work
TRPV1-R = details: in vivo; cited from earlier work
INS832/13 cells = assay: RNAi-knockdown of ABHD6, insulin secretion; format: cell-based; details: siRNA transfection; for glucose-stimulated insulin secretion: 10 mM glucose
Method: INS 832/13 cells were plated at a density of 150 000 cells/well in a 12-well plate, in 1 ml complete RPMI medium, one day prior to RNAi transfection. On the next day, RNAi duplexes and lipofectamine-RNAimax™ were prepared separately. Then 24 pmol of each RNAi duplex was diluted in 100 μl Opti-MEM™ without serum and mixed gently. And at the same time, 2 μl of lipofectamine-RNAimax was diluted in 100 μl Opti-MEM without serum and mixed gently. Then the diluted RNAi duplex and RNAi-max reagents were mixed gently (200 μl volume) and incubated at room temperature for 20 min. This 200 μl mixture (which gives a final concentration of […] of RNAi), prepared separately for each well, was then added to the corresponding well with approximately 30% confluent INS cells. Following RNAi transfection, cells were incubated for 16 to 72 h. in a CO2 incubator at 37° C. Then the cells were starved by incubation in RPMI-1640 with 10% FBS and 1 mM glucose for 2 h. followed by washing one time with KRBH (containing 1 mM glucose and 0.5% BSA) and pre-incubation with the same KRBH for 45 min. Finally for following insulin secretion, cells were incubated in the KRBH buffer with 1 mM or 10 mM glucose for 2 h. The media and the cells were collected for insulin and protein assay as described above. The ABHD6-directed siRNAs and the control siRNAs were obtained from Ambion (Catalog #4390771; […]tt (ABHD6-6 sense or SEQ ID NO: 9), […]gt (ABHD6-6 anti-sense or SEQ ID NO: 10), […]tt (ABHD6-5 sense or SEQ ID NO: 11), […]at (ABHD6-5 anti-sense or SEQ ID NO: 12)). ABHD6-6 sense and antisense oligos are used in a similar fashion. Control siRNAs, which are non-targeting siRNAs with limited sequence similarity to known genes were obtained from Ambion (Catalog #AM4613 and AM4642) and were used to transfect the cells as described above. Additionally, non-treated cells and pBS (plasmid vector Bluescript) transfected cells were used as controls as well. Results of insulin secretion and ABHD6 expression in ABHD6-siRNA transfected cells were compared with different controls.

[7] = 20 μM AMG9810, with 20 μM WWL70
[8] = 1 and 10 mM [U14C]-glucose, 50 μM orlistat

| Molecule | GSIS [1] | GSIS (human intact islets) | KCl-stimulated insulin secretion (INS 832/13 cells [2]) | insulin secretion stimulated by leucine+glutamine (INS 832/13 cells [2]) | GSIS [3] | GSIS [4] | glucose incorporation into 1-monoacylglycerol (1-MAG) (INS 832/13 cells [5]; [8]) | glucose incorporation into 2-monoacylglycerol (2-MAG) (INS 832/13 cells [5]; [8]) | glucose incorporation into diacylglycerol (DAG) (INS 832/13 cells [5]; [8]) | glucose incorporation into triglycerides (TG) (INS 832/13 cells [5]; [8]) | glucose-stimulated insulin secretion (GSIS) (INS 832/13 cells [2]) | effect on MAG lipase (MAGL) (MAG lipase (MAGL)) | glucose-stimulated insulin secretion (INS832/13 cells) | other results |
| --- | --- | --- | --- | --- | --- | --- | --- | --- | --- | --- | --- | --- | --- | --- |
| CC(C)(C)c1ccc(/C=C/C(=O)Nc2ccc3c(c2)OCCO3)cc1 [AMG9810] | without significant effect on GSIS per se | without significant effect on GSIS per se | Neither WWL70 nor AMG9810 had any effect | inhibited | without significant effect on GSIS per se | inhibition of GSIS | – | – | – | – | – | – | – | WWL70-enhanced GSIS ([1]; 20 μM WWL70 + 20 μM AMG9810): antagonized; GSIS inhibition by AMG9810 (WWL70-augmented) (human intact islets; [7]): inhibition of GSIS; WWL70-enhanced GSIS (INS 832/13 cells [2]; 10 μM WWL70, AMG9810 at 10 μM, 1, 5, 10 mM glucose): completely antagonized the WWL70 stimulation; GSIS, AMG9810 alone (INS 832/13 cells [2]; 1, 5, 10 mM glucose, AMG9810 concentration series): dose-dependently reduces GSIS; WWL70-enhanced GSIS (rat intact islets; 20 μM WWL70 + 20 μM AMG9810): antagonized; GSIS inhibition by AMG9810 (WWL70-augmented) [3, 7]: inhibition of GSIS |
| O=C(Oc1ccc([N+](=O)[O-])cc1)N1CCC(C(O)(c2ccc3c(c2)OCO3)c2ccc3c(c2)OCO3)CC1 [JZL184] | – | – | – | – | – | – | elevated | elevated | no effect | no effect | no effect | specifically inhibits MAGL | – | release of [U14C]-free fatty acids (FFA) (INS 832/13 cells [5]; 1 and 10 mM [U14C]-glucose, 50 μM orlistat, 1 μM JZL184): no effect |
| CN(Cc1cccc(-c2ccncc2)c1)C(=O)Oc1ccc(-c2ccc(C(N)=O)cc2)cc1 [WWL70] | enhanced GSIS | enhancement | Neither WWL70 nor AMG9810 had any effect | enhanced | enhancement | enhancement | elevation | elevation | Neither of the inhibitors had any effect | marginal effect | almost doubled the GSIS; also recorded: robust increase | no effect | – | 1-OG hydrolysis activity (released oleic acid) [6]: inhibited the 1-OG hydrolysis activity; glycemia (CD1 mice): better controlled the glycemia; plasma insulin levels (CD1 mice): significantly elevated; decrease of FFA release (fraction) (INS 832/13 cells [5]; 10 μM WWL70): about ⅔; glucose incorporation into phospholipids (INS 832/13 cells [5]; 1 and 10 mM [U14C]-glucose, 50 μM orlistat, 10 μM WWL70): None of the lipase inhibitors had any significant effect; portion of GSIS amplified by palmitate (INS 832/13 cells [2]; 10 μM WWL70, glucose + palmitate): not further enhanced; WWL70 concentration reaching near maximal enhancement of GSIS (INS 832/13 cells [2]; 5 mM and 10 mM glucose): ~10 µM; GSIS (rat intact islets; 20 μM WWL70): enhanced GSIS; effect on ABHD12 (ABHD12): no effect |
| C=C(C)[C@]12C[C@@H](C)[C@@]34O[C@](Cc5ccccc5)(O[C@@H]1[C@@H]3C=C(COC(=O)Cc1ccc(O)c(OC)c1)C[C@]1(O)C(=O)C(C)=C[C@@H]41)O2 [resiniferatoxin] | – | – | – | – | – | – | – | – | – | – | – | – | – | plasma insulin levels (TRPV1-R): elevates plasma insulin levels |
| ABHD6-siRNA5: annealed ABHD6-5 sense (SEQ ID NO: 11) and anti-sense (SEQ ID NO: 12) oligos, ABHD6-directed siRNA from Ambion (sense CAGUUUGUAGAAUGCCUUATT; antisense UAAGGCAUUCUACAAACUGAT; chemistry not given here) | – | – | – | – | – | – | – | – | – | – | – | – | significantly elevated | basal insulin secretion (INS832/13 cells; 1 mM glucose): increased |
| ABHD6-siRNA6: annealed ABHD6-6 sense (SEQ ID NO: 9) and anti-sense (SEQ ID NO: 10) oligos, ABHD6-directed siRNA from Ambion (sense CGGAAAUUGUUUUUGGAAATT; antisense UUUCCAAAAACAAUUUCCGGT; chemistry not given here) | – | – | – | – | – | – | – | – | – | – | – | – | significantly elevated | – |
